Assay results as given in patent US20130210807A1, “Tricyclic Compounds as Allosteric Modulators of Metabotropic Glutamate Receptors” (priority 2010, published 2013).

Target: T1, human mGluR4 (Homo sapiens, UniProt Q14833)
T1 construct: expressed in transfected cells; host or cells: HEK-293
Assay: mGluR4 Assay on HEK-Expressing Human mGluR4 (FLIPR Ca2+ fluorescence, PAM activity)
Format: cell-based
Conditions: Table I; human mGluR4 HEK-293 cells, Fluo4-AM/FLIPR, stimulated with glutamate EC25
Description: mGluR4 Assay on HEK-Expressing Human mGluR4
Since, as explained above, the compounds of the present invention are positive allosteric modulators of mGluR4 receptors, which activity was assayed by detecting changes in intracellular Ca^+2 ion concentration using a Ca^+2-sensitive fluorescent dye (Fluo4-(AM)) and a fluorometric imaging plate reader (FLIPR, Molecular Devices, Sunnyvale, Calif.) in accordance with the manufacturers instructions.
Accordingly, 24 hours prior to carrying out an analysis, human mGluR4 HEK-293 cells were plated out in black-walled, clear-bottomed, poly-L-ornithine-coated 384-well plates at a density of 25,000 cells/well in a glutamine/glutamate-free DMEM medium containing fetal bovine serum (10%), penicillin (100 units/mL) and streptomycin (100 micrograms/mL) at 37° C. under 5% CO2. On the day of the assay, the medium was aspirated and the cells were loaded with a 3 micro-molar solution of Fluo4-AM (LuBioScience, Lucerne, Switzerland) in 0.03% pluronic acid. After maintaining the plate 1 hour at 37° C. under 5% CO2 the non-incorporated dye was removed by washing the cell plate with the assay buffer and the cells were left in the dark at room temperature for six hours before evaluating. All assays were performed in a pH 7.4 buffered-solution containing 20 mM HEPES, 142 mM NaCl, 6 mM KCl, 1 mM MgSO4, 1 mM CaCl2, 0.125 mM sulfapyrazone, and 1% glucose.
Basal fluorescence was recorded over 10 seconds, then aliquots of various concentrations of a compound of the invention were added to the cells. Changes in fluorescence level were first monitored for 180 seconds in order to detect any agonist activity attributable to the compound being assayed. Then the cells were stimulated for an additional 110 seconds by that concentration of glutamate yielding 25% of the maximal response to glutamate (EC25). Concentration-response curves of compounds of the invention were generated using Prism GraphPad software (Graph Pad Inc., San Diego, USA). Curves generated were fitted to a four-parameter logistic equation allowing the determination of EC50 values:
Y=Bottom+(Top−Bottom)/(1+10^logEC^50-^X)*Hill Slope.
For each sample assayed, at least three independent measurements were performed. EC50 values thus determined are reported for each of the compounds of the invention in the respective Tables 1 to 3 herein above.

T1 sequence (Q14833 33-912): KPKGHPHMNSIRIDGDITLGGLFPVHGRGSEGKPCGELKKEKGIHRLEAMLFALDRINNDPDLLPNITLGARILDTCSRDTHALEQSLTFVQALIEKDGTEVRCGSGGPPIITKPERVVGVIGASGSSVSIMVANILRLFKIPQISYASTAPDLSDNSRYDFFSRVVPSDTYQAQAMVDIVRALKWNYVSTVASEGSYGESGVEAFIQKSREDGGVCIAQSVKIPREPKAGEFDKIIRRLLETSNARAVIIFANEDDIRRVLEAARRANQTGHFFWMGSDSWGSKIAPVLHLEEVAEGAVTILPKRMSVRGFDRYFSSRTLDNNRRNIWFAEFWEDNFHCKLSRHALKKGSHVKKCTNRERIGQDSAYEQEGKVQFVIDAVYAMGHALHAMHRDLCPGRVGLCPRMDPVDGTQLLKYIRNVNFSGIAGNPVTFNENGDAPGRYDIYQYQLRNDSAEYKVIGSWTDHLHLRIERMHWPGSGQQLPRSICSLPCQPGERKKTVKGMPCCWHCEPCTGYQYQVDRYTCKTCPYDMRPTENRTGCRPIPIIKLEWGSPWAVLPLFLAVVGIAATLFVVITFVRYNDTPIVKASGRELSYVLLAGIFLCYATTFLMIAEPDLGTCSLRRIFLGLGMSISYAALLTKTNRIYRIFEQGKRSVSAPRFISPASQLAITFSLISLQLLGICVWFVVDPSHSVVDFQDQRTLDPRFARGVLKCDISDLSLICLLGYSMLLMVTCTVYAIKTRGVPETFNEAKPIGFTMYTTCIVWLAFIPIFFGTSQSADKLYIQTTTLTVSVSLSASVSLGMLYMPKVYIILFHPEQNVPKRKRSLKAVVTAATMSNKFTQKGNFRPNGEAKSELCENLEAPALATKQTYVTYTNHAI

EC50 | Structure (SMILES)
28 nM | Cc1ccnc(Nc2nc3c(ccc4[nH]ncc43)s2)n1 [Cmpd 2, N-(4-methylpyrimidin-2-yl)-6H-[1,3]thiazolo[4,5-e]indazol-2-amine]
36 nM | Cc1ccnc(Nc2nc3c(s2)CC(C)c2[nH]ncc2-3)n1 (stereo not drawn) [Cmpd 10, 5-methyl-N-(4-methylpyrimidin-2-yl)-5,6-dihydro-4H-[1,3]thiazolo[4,5-e]indazol-2-amine]
2 nM | Clc1cc2sc(Nc3ncccn3)nc2c2cn[nH]c12 [Cmpd 7, 5-chloro-N-(pyrimidin-2-yl)-6H-[1,3]thiazolo[4,5-e]indazol-2-amine]
753 nM | CC1(C)Cc2[nH]ncc2-c2nc(Nc3ncc(F)cn3)sc21 [Cmpd 4, N-(5-fluoropyrimidin-2-yl)-4,4-dimethyl-5,6-dihydro-4H-[1,3]thiazolo[4,5-e]indazol-2-amine]
129 nM | Cc1ccnc(Nc2nc3c(cc(C)c4[nH]ncc43)s2)n1 [Cmpd 8, 5-methyl-N-(4-methylpyrimidin-2-yl)-6H-[1,3]thiazolo[4,5-e]indazol-2-amine]
35 nM | c1cnc(Nc2nc3c(s2)C2(CC2)Cc2[nH]ncc2-3)nc1 [Cmpd 12, N-(pyrimidin-2-yl)-5′-6′-dihydrospiro[cyclopropane-1,4′-[1,3]thiazolo[4,5-e]indazol]-2′-amine]
93 nM | Fc1cnc(Nc2nc3c(s2)C2(CC2)Cc2[nH]ncc2-3)nc1 [Cmpd 13, N-(5-fluoropyrimidin-2-yl)-5′,6′-dihydrospiro[cyclopropane-1,4′-[1,3]thiazolo[4,5-e]indazol]-2′-amine]
9 nM | c1cnc(Nc2nc3c(ccc4[nH]ncc43)s2)nc1 [Cmpd 3, N-(pyrimidin-2-yl)-6H-[1,3]thiazolo[4,5-e]indazol-2-amine]
2 nM | CC1Cc2sc(Nc3ncccn3)nc2-c2cn[nH]c21 (stereo not drawn) [Cmpd 9, 5-methyl-N-(pyrimidin-2-yl)-5,6-dihydro-4H-[1,3]thiazolo[4,5-e]indazol-2-amine]
545 nM | Cc1ccnc(Nc2nc3c(s2)C2(CC2)Cc2[nH]ncc2-3)n1 [Cmpd 11, N-(4-methylpyrimidin-2-yl)-5′,6′-dihydrospiro[cyclopropane-1,4′-[1,3]thiazolo[4,5-e]indazol]-2′-amine]
1 nM | Brc1cc2sc(Nc3ncccn3)nc2c2cn[nH]c12 [Cmpd 6, 5-bromo-N-(pyrimidin-2-yl)-6H-[1,3]thiazolo[4,5-e]indazol-2-amine]
326 nM | Cc1ccnc(Nc2nc3c(s2)C(C)(C)Cc2[nH]ncc2-3)n1 [Cmpd 1, 4,4-dimethyl-N-(4-methylpyrimidin-2-yl)-5,6-dihydro-4H-[1,3]thiazolo[4,5-e]indazol-2-amine]
645 nM | Cc1nc(Nc2nc3c(s2)C(C)(C)Cc2[nH]ncc2-3)ncc1F [Cmpd 5, N-(5-fluoro-4-methylpyrimidin-2-yl)-4,4-dimethyl-5,6-dihydro-4H-[1,3]thiazolo[4,5-e]indazol-2-amine]

Same assay, conditions: Table II; human mGluR4 HEK-293 cells, Fluo4-AM/FLIPR, stimulated with glutamate EC25

EC50 | Structure (SMILES)
56 nM | Cc1ccnc(Nc2nc3c(s2)CCC(F)(F)c2[nH]ncc2-3)n1 [Cmpd 34, 6,6-difluoro-N-(4-methylpyrimidin-2-yl)-4,5,6,7-tetrahydropyrazolo[3′,4′:6,7]cyclohepta[1,2-d][1,3]thiazol-2-amine]
186 nM | Cc1ccnc(Nc2nc3c(s2)C(C)OCc2[nH]ncc2-3)n1 (stereo not drawn) [Cmpd 23, 4-methyl-N-(4-methylpyrimidin-2-yl)-6,7-dihydro-4H-pyrazolo[4′,3′:5,6]oxepino[4,3-d][1,3]thiazol-2-amine]
1420 nM | c1cnc(Nc2nc3c(s2)Cc2[nH]ncc2-3)nc1 [Cmpd 14, N-(pyrimidin-2-yl)-1,7-dihydropyrazolo[3′,4′:4,5]cyclopenta[1,2-d][1,3]thiazol-5-amine]
8 nM | Fc1cnc(Nc2nc3c(s2)COCc2[nH]ncc2-3)nc1 [Cmpd 15, N-(5-fluoropyrimidin-2-yl)-6,7-dihydro-4H-pyrazolo[4′,3′:5,6]oxepino[4,3-d][1,3]thiazol-2-amine]
2380 nM | Cc1ccnc(Nc2nc3c(s2)CN(C)Cc2[nH]ncc2-3)n1 [Cmpd 28, 5-methyl-N-(4-methylpyrimidin-2-yl)-4,5,6,7-tetrahydropyrazolo[3,4-c][1,3]thiazolo[4,5-e]azepin-2-aminee]
7 nM | c1cnc(Nc2nc3c(s2)COCc2[nH]ncc2-3)nc1 [Cmpd 16, N-(pyrimidin-2-yl)-6,7-dihydro-4H-pyrazolo[4′,3′:5,6]oxepino[4,3-d][1,3]thiazol-2-amine]
1500 nM | Cc1ccnc(Nc2nc3c(s2)CCC(=O)c2[nH]ncc2-3)n1 [Cmpd 36, 2-[(4-methylpyrimidin-2-yl)amino]-4,7-dihydropyrazolo[3′,4′:6,7]cyclohepta[1,2-d][1,3]thiazol-6(5H)-one]
39 nM | Fc1cnc(Nc2nc3c(s2)CCCc2[nH]ncc2-3)nc1 [Cmpd 29, N-(5-fluoropyrimidin-2-yl)-4,5,6,7-tetrahydropyrazolo[3′,4′:6,7]cyclohepta[1,2-d][1,3]thiazol-2-amine]
173 nM | CCc1ccnc(Nc2nc3c(s2)COC(C)c2[nH]ncc2-3)n1 (stereo not drawn) [Cmpd 20, 6-Methyl-N-[4-(ethyl)pyrimidin-2-yl]-6,7-dihydro-4H-pyrazolo[4′,3′:5,6]oxepino[4,3-d][1,3]thiazol-2-amine]
10 nM | Cc1ccnc(Nc2nc3c(s2)COCc2[nH]ncc2-3)n1 [Cmpd 17, N-(4-methylpyrimidin-2-yl)-6,7-dihydro-4H-pyrazolo[4′,3′:5,6]oxepino[4,3-d][1,3]thiazol-2-amine]
3 nM | Cc1ccnc(Nc2nc3c(s2)COC(C)c2[nH]ncc2-3)n1 (racemic) [Cmpd 18, N-(4-methylpyrimidin-2-yl)-6-methyl-6,7-dihydro-4H-pyrazolo[4′,3′:5,6]oxepino[4,3-d][1,3]-thiazol-2-amine]
27 nM | Cc1nc(Nc2nc3c(s2)COC(C)c2[nH]ncc2-3)ncc1F (stereo not drawn) [Cmpd 21, N-(5-Fluoro-4-methylpyrimidin-2-yl)-6-methyl-6,7-dihydro-4H-pyrazolo[4′,3′:5,6]oxepino[4,3-d][1,3]thiazol-2-amine]
20 nM | Cc1ccnc(Nc2nc3c(s2)CC(F)Cc2[nH]ncc2-3)n1 (stereo not drawn) [Cmpd 40]
121 nM | Cc1ccnc(Nc2nc3c(s2)C(C)OC(C)c2[nH]ncc2-3)n1 (stereo not drawn) [Cmpd 24, 4,6-dimethyl-N-(4-methylpyrimidin-2-yl)-6,7-dihydro-4H-pyrazolo[4′,3′:5,6]oxepino-[4,3-d][1,3]thiazol-2-amine]
994 nM | c1cnc(Nc2nc3c(s2)CNCc2[nH]ncc2-3)nc1 [Cmpd 27, N-(pyrimidin-2-yl)-4,5,6,7-tetrahydropyrazolo[3,4-c][1,3]thiazolo[4,5-e]azepin-2-amine]
28 nM | COc1ccnc(Nc2nc3c(s2)COCc2[nH]ncc2-3)n1 [Cmpd 19, N-(4-methoxypyrimidin-2-yl)-6,7-dihydro-4H-pyrazolo[4′,3′:5,6]oxepino[4,3-d][1,3]thiazol-2-amine]

Same assay, conditions: text b34; human mGluR4 HEK-293 cells, glutamate EC25

EC50 | Structure (SMILES)
70 nM | Cc1nc(Nc2nc3c(s2)COC(C)c2[nH]ncc2-3)ns1 (stereo not drawn) [Cmpd 38]
